The values below are quoted from earlier work in patent US20110142834A1, “TREATMENT OF HEARING AND BALANCE IMPAIRMENTS USING COMPOUNDS HAVING ERYTHROPOIETIN ACTIVITY” (Edison Pharmaceuticals, Inc., priority 2008, published 2011).

Structures are written as SMILES.

For `[H]/N=C(/N)N[C@H]1[C@H](O)[C@@H](O)[C@H](O[C@@H]2O[C@@H](C)[C@](O)(C=O)[C@H]2O[C@@H]2O[C@@H](CO)[C@H](O)[C@@H](O)[C@@H]2NC)[C@@H](N/C(N)=N\[H])[C@@H]1O` [streptomycin], for the setting “1 gram per day”, the “incidence of vestibular impairment” value was 25%. The “patients displaying some vestibular impairment” value (2 grams daily for 60 to 120 days) is around 75%.
